ChEMBL document CHEMBL1158248, “Pessoine and spinosine, two catecholic berbines from Annona spinescens” (1996)

Tests used:
Assay type in all cases: functional
Trypanosoma cruzi = test: Trypanocidal activity against Trypanosoma cruzi trypomastigote assessed as lysis of trypomastigotes at 250 ug/mL after 24 hrs relative to control
Leishmania amazonensis [1] = test: Antileishmanial against Leishmania amazonensis promastigote LV 79 assessed as lysis of parasites at 10 ug/mL after 48 hrs
Leishmania donovani [2] = test: Antileishmanial against Leishmania donovani promastigote PP-75 assessed as total lysis of parasites after 48 hrs
Leishmania braziliensis [3] = test: Antileishmanial against Leishmania brasiliensis 2903 promastigote assessed as total lysis of parasites after 48 hrs
Leishmania amazonensis [4] = test: Antileishmanial against Leishmania amazonensis promastigote LV 79 assessed as total lysis of parasites after 48 hrs
Leishmania donovani [5] = test: Antileishmanial against Leishmania donovani promastigote PP-75 assessed as lysis of parasites at 10 ug/mL after 48 hrs
Leishmania donovani [6] = test: Antileishmanial against Leishmania donovani promastigote PP-75 assessed as lysis of parasites at 25 ug/mL after 48 hrs
Leishmania amazonensis [7] = test: Antileishmanial against Leishmania amazonensis promastigote LV 79 assessed as lysis of parasites at 50 ug/mL after 48 hrs
Leishmania braziliensis [8] = test: Antileishmanial against Leishmania brasiliensis 2903 promastigote assessed as lysis of parasites at 100 ug/mL after 48 hrs

Compound	Activity (Trypanosoma cruzi) [%]	Activity (Leishmania donovani [2]) [µg/mL]	Activity (Leishmania amazonensis [4]) [µg/mL]	other results
COc1cc2c(cc1O)[C@@H]1Cc3cc(O)c(O)cc3CN1CC2	55	–	–	–
COc1cc2c3c(c1O)-c1cc4c(cc1CC3N(C(C)=O)CC2)OCO4 (stereo unspecified) [ACETYLNORDOMESTICINE]	60	–	–	–
c1ccc2c(c1)C[C@H]1NCCc3cc4c(c-2c31)OCO4 [ANONAINE]	99	100	25	Activity (Leishmania amazonensis [1]): 90%; Activity (Leishmania braziliensis [3]): 50 µg/mL; Activity (Leishmania donovani [5]): 90%
CN(C)c1ccc(C(=C2C=CC(=[N+](C)C)C=C2)c2ccc(N(C)C)cc2)cc1.[Cl-] [GENTIAN VIOLET]	100	–	–	–
O=C1c2ccccc2-c2c3c(cc4ccnc1c24)OCO3 [LIRIODENINE]	50	100	100	Activity (Leishmania donovani [6]): 90%; Activity (Leishmania amazonensis [7]): 90%; Activity (Leishmania braziliensis [8]): 90%
COC(=O)/C=C/c1cc(OC)c(O)c(OC)c1 [METHYL SINAPATE]	44	–	–	–
COc1cc2c(cc1O)-c1c(O)c(OC)cc3c1[C@H](C2)NCC3 [NORBRACTEOLINE]	62	–	–	–
COc1cc2c3c(c1OC)C1(C=CC(=O)C=C1)C[C@@H]3NCC2 [STEPHARINE]	65	–	–	–
MEGLUMINE ANTIMONATE	–	> 100	> 100	Activity (Leishmania braziliensis [3]): > 100 µg/mL
